The source of these data is patent US8338422B2, “Indolin-2-ones and aza-indolin-2-ones” (Janssen Pharmaceutica NV, priority 2007, dated 2012).

For assay [1], the target named is PLK4 (h) (Homo sapiens, UniProt O00444). Description: PLK-4 human kinase assay (SPA). It counts as biochemical. The conditions noted are these: for IC50: read-out: PLK4 pIC50 (converted). The method, boiled down:
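Radiometric readout: 33P-labelled peptide captured on streptavidin SPA beads after EDTA stop, imaged by Leadseeker. Reaction ran 60 min at room temperature in Hepes pH 8.0 buffer. It contained 1 μM ATP with 2 nM [γ-33P]ATP, 10 μM biotinylated peptide and PLK4 (h) at 19 μg/ml.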

Assay [2] has as its system SKOV3. Description: Cellular proliferation assay (Alamar blue), SKOV3. The format is cell-based. As to conditions: 72 hours with compound, 10% FCS; for pIC50 SKOV3: SKOV3 cells; for IC50: Homo sapiens, SK-OV-3, SKOV3 cells, read-out: pIC50 SKOV3 (converted). As for the experimental part:
(§1) […] functional properties of these compounds was tested in cellular proliferation assays on a panel of different cell lines in the presence of 10% FCS serum (37° C. and 5% (v/v) CO2). In a first step these cells were seeded and incubated for 24 hours in the absence of compound. In the second step the cells were incubated for 72 hours with the compounds to be tested for 72 hours. The viable cell number was finally assessed in a standard Alamar blue cell viability assay.
(§2) The viable cell number was assessed by incubation for either 4 h (HCT-116, H1299, H460) 6 h (SKOV3, HT29, U87-MG, Colo205) or 24 h (A2780, PC3, MDA-MB-231, A549, MCF-7) with Alamar blue (Resazurin 9 μg/ml, K-Ferrocyanide 90 μM K-Ferricyanide 90 μM) and the converted fluorescent product was quantified on a fluorescent plate readed (544 nm/590 nm). Effect of the compounds is calculated as of on control cells.
A general note: Alamar Blue is a resazurin reagent that responds to reducing activity.

The test system of assay [3] is HT-29. Description: Cellular proliferation assay (Alamar blue), HT-29. The format is cell-based. As to conditions: HT-29 cells, 72 hours with compound, 10% FCS; for IC50: Homo sapiens, read-out: pIC50 HT-29 (converted). As to the method:
as §1, §2

Assay [4] has as its system Colo205. Description: Cellular proliferation assay (Alamar blue), Colo205. It counts as cell-based. As to conditions: 72 hours with compound, 10% FCS; for pIC50 Colo205: Colo205 cells; for IC50: Homo sapiens, COLO 205, Colo205 cells, read-out: pIC50 Colo205 (converted). As for the experimental part: as §1, §2
The test system of assay [5] is A549. Description: Cellular proliferation assay (Alamar blue), A549. The format is cell-based. As to conditions: A549 cells, 72 hours with compound, 10% FCS; for IC50: Homo sapiens, read-out: pIC50 A549 (converted). As for the experimental part: as §1, §2
The subject of assay [6] is H460. Description: Cellular proliferation assay (Alamar blue), H460. It counts as cell-based. The conditions noted are these: 72 hours with compound, 10% FCS; for pIC50 H460: H460 cells; for IC50: Homo sapiens, NCI-H460, H460 cells, read-out: pIC50 H460 (converted). As to the method:
as §1, §2

Assay [7] concerns MCF-7. Description: Cellular proliferation assay (Alamar blue), MCF-7. It counts as cell-based. The conditions noted are these: 72 hours with compound, 10% FCS; for pIC50 MCF-7: MCF-7 cells; for IC50: Homo sapiens, MCF7, MCF-7 cells, read-out: pIC50 MCF-7 (converted). As to the method: as §1, §2
For assay [8], the system named is DU-145. Description: Cellular proliferation assay (Alamar blue), DU-145. It counts as cell-based. As to conditions: DU-145 cells, 72 hours with compound, 10% FCS; for IC50: Homo sapiens, read-out: pIC50 DU-145 (converted). As to the method: as §1, §2
The subject of assay [9] is A431. Description: Cellular proliferation assay (Alamar blue), A431. The conditions noted are these: 72 hours with compound, 10% FCS; for pIC50 A431: A431 cells; for IC50: Homo sapiens, A-431, A431 cells, read-out: pIC50 A431 (converted). The format is cell-based. As for the experimental part:
as §1, §2

Assay [10] deals with PC-3. Description: Cellular proliferation assay (Alamar blue), PC-3. It counts as cell-based. As to conditions: PC-3 cells, 72 hours with compound, 10% FCS; for IC50: Homo sapiens, PC-3, 72 h, read-out: pIC50 PC-3 (converted). The method, boiled down:
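Proliferation was assessed over 72 h of compound treatment, following 24 h of seeding without compound, under 10% FCS, 37° C. and 5% CO2. Fluorescent resazurin product was measured and compared with control cells.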

Assay [11] relates to SK-N-SH. Description: Cellular proliferation assay (Alamar blue), SK-N-SH. It counts as cell-based. The conditions noted are these: SK-N-SH cells, 72 hours with compound, 10% FCS; for IC50: Homo sapiens, read-out: pIC50 SK-N-SH (converted). As to the method:
as §1, §2

The target in assay [12] is AuroraB (h) (Homo sapiens, UniProt Q96GD4). Description: Aurora-B human kinase assay (SPA). The format is biochemical. A digest of the protocol:
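33P-phosphorylated biotin-substrate captured on streptavidin PVT SPA beads after EDTA-containing stop and imaged on Leadseeker. Reaction: 60 min at room temperature, Hepes pH 7.5 with Mg2+/Mn2+. Conditions: 0.5 μM ATP plus 2.2 nM [γ-33P]ATP, 3 μM substrate, 0.5 μg/ml human AuroraB.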

Assay [13] concerns the target GSK3β (h) (Homo sapiens, UniProt P49841). Description: GSK-3β human kinase assay (SPA). It counts as biochemical. A digest of the protocol:
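Radiometric SPA read-out: after EDTA stop, biotinylated 33P-labelled peptide bound streptavidin PVT beads and was imaged on Leadseeker. Reaction: 60 min, room temperature, GSK3β (h) at 1 μg/ml, 1 μM substrate peptide, 1 μM ATP with 2 nM [γ-33P]ATP, Tris pH 7.4/MgCl2/DTT buffer.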

In assay [14] the target is CDK1/CyclinB (h) (Homo sapiens, UniProt P06493). Description: CDK1/CyclinB human kinase assay (FRET). The format is biochemical. A digest of the protocol: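 Kinase activity was read as the 460/538 nm emission ratio after protease cleavage of unphosphorylated peptide (60 min development). The reaction ran 60 min at room temperature with 10 μM ATP, 2 μM Ser/Thr peptide 12 and 0.2 μg/ml enzyme in Hepes pH 7.5 buffer with MgCl2, EGTA, Brij-35.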
CDK1/CyclinB (h), sequence (P06493 whole entry): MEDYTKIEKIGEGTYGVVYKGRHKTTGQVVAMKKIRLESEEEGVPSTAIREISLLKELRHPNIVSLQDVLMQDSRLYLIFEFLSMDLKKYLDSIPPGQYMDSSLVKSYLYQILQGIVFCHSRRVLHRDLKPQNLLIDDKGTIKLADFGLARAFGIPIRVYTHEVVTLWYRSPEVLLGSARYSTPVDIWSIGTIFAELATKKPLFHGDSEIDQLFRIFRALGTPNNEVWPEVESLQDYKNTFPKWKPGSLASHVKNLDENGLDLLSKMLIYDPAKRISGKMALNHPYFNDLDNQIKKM
CDK1/CyclinB (h), sequence (P14635 whole entry partner): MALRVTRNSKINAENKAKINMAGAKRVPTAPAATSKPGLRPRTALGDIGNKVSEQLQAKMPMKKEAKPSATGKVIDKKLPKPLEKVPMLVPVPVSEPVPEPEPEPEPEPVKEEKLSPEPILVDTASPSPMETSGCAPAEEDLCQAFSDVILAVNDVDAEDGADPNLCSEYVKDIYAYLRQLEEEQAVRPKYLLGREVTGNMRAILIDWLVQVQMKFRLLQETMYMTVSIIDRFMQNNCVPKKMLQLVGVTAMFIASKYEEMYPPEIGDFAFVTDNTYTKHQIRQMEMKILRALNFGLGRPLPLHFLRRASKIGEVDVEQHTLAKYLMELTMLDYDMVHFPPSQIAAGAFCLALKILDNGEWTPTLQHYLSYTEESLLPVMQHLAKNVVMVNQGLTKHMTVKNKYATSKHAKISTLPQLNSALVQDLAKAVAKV

PLK4 (h), sequence (O00444 whole entry): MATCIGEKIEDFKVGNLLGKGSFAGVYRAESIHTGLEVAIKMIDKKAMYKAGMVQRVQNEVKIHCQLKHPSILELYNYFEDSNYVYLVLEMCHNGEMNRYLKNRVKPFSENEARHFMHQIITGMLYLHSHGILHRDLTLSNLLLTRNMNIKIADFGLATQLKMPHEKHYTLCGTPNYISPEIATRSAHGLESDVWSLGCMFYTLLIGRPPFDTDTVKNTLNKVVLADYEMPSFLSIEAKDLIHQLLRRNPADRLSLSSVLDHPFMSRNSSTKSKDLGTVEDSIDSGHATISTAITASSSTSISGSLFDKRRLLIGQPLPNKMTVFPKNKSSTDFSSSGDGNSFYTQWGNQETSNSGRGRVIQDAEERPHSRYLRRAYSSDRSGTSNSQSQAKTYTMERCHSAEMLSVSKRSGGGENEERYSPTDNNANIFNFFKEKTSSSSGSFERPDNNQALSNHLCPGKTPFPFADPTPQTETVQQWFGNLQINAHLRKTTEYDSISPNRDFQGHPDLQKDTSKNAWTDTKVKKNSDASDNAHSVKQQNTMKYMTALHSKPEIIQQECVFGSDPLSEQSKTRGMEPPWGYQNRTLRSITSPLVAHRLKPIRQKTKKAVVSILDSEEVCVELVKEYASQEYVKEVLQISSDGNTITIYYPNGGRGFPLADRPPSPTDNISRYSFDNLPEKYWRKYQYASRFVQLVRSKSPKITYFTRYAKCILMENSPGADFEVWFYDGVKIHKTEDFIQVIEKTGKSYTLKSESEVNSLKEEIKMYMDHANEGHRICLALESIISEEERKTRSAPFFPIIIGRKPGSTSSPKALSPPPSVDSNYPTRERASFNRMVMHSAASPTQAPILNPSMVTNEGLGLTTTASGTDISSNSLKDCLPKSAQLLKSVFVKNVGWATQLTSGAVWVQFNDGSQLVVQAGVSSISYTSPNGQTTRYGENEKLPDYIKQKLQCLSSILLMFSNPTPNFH
GSK3β (h), sequence (P49841 whole entry): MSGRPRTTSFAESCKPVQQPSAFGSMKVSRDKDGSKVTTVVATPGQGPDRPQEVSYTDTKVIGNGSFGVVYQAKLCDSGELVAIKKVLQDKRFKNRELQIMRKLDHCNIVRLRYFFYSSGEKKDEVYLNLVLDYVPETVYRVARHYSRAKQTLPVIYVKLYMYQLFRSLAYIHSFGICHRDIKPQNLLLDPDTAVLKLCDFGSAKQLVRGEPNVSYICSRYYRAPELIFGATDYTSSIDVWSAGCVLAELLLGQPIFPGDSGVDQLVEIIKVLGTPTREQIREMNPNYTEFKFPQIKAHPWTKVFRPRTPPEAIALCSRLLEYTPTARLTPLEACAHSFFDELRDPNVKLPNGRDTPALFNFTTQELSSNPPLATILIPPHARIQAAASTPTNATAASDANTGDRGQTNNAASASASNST
AuroraB (h), sequence (Q96GD4 whole entry): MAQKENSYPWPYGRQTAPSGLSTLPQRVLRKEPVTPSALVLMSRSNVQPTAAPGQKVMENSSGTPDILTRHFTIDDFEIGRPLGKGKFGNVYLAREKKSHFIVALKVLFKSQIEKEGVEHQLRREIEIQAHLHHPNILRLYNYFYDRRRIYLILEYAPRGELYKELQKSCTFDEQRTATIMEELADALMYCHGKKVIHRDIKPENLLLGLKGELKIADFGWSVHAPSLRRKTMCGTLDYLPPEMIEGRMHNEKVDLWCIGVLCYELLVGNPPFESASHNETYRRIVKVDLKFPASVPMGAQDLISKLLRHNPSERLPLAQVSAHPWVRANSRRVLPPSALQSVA

As to `CC(C)N1CCCC(=O)N2CCN(CC2)c2ncnc3c2C(=CNc2ccc(F)c(c2)C1)C(=O)N3` (mixture of isomers) [Compound 30], the “PLK4 pIC50” value in [1] is recorded as under 5. Besides, the “pIC50 SKOV3” value in assay [2] was under 5. Further, the “pIC50 HT-29” value in [3] was under 5. Moreover, the “pIC50 Colo205” value in assay [4] is recorded as under 5. In assay [5], the “pIC50 A549” value is given as under 5. The “pIC50 H460” value in assay [6] was under 5. Further, the “pIC50 MCF-7” value in assay [7] is under 5. The “pIC50 DU-145” value in [8] is under 5. The “pIC50 A431” value in assay [9] is under 5. For the same molecule, the “pIC50 PC-3” value in [10] was under 5. In addition, the “pIC50 SK-N-SH” value in [11] is reported as under 5.
As for `COc1ccc2cc1OCCCC(=O)N(C(C)C)CCCCN(C)c1ncnc3c1C(=CN2)C(=O)N3` (mixture of isomers) [Compound 33], the “PLK4 pIC50” value in assay [1] was found to be 5.27. Moreover, the “AuroraB pIC50” value in assay [12] worked out at 5. For the same molecule, the “GSK3B pIC50” value in assay [13] is 5.33. The “CDK1 pIC50” value in [14] came out at 5.14. In addition, the “pIC50 SKOV3” value in assay [2] was under 5. Moreover, the “pIC50 HT-29” value in [3] was under 5. The “pIC50 Colo205” value in assay [4] was under 5. In assay [5], the “pIC50 A549” value is listed as under 5. In addition, the “pIC50 H460” value in [6] was under 5. The “pIC50 MCF-7” value in assay [7] is listed as 4.99. The “pIC50 DU-145” value in [8] was under 5. The “pIC50 A431” value in assay [9] is reported as under 5. Moreover, the “pIC50 PC-3” value in [10] is under 5. In addition, the “pIC50 SK-N-SH” value in [11] is given as 5.27.
Regarding `CC(C)N1CCCCCC(=O)N2CCN(CC2)c2ncnc3c2/C(=C/Nc2ccc(F)c(c2)C1)C(=O)N3` [Compound 28], the IC50 in [1], in assay [12] (read-out: AuroraB pIC50 (converted)), in [13] (read-out: GSK3B pIC50 (converted)), in [14] (read-out: CDK1 pIC50 (converted)), in assay [2] and in assay [3] was over 10000 nM in each case. Moreover, the IC50 in [4], in assay [5], in [6], in assay [7], in [8] and in [9] was over 10000 nM in each case. The IC50 in [10] and in assay [11] was over 10000 nM in each case.
As to `COc1ccc2cc1OCCCC(=O)N(C(C)C)CCN(C)c1ncnc3c1/C(=C/N2)C(=O)N3` [Compound 32], the IC50 in [1] is 1050 nM; in assay [2], 3310 nM; in assay [3], 2510 nM; in assay [4], 2040 nM; in assay [5] it was 2140 nM; in assay [6], 2340 nM. For the same molecule, the IC50 in assay [7] was 1580 nM; in [8], 3980 nM; in assay [9] it was 1320 nM; in assay [10], 1000 nM; in assay [11] it was 1620 nM.
